Tested on: sugarcane
Experiment: Sugarcane flowering inhibition field trials, floral induction rated on UFSCar scale
Assay type: in vivo
Method: In order to explore the activity of florpyrauxifen as flowering inhibitor in sugarcane, field studies were carried out. Florpyrauxifen-benzyl was tested at rates from 2 to 20 grams active ingredient per hectare (g ai/ha) and compared to Ethrel® 720 (Bayer), the standard treatment. The flowering inhibition effect was assessed by checking the floral induction in sugarcane through the percentage scale recommended by UFSCar (Federal University of Sao Carlos, Sao Paulo, Brazil).
Four trials were carried out in sugarcane where florpyrauxifen-benzyl (Rinskor®), applied at a rate of 2 to 20 g ai/ha, was compared to ethephon (Ethrel® 720) applied at a rate of 475 g ai/ha. Control plots of untreated sugarcane were also evaluated. Rinskor® and Ethrel® 720 were diluted in water and a single application for each study (backpack sprayer) was performed delivering 50 L of spray solution per ha at the reproductive stage of sugarcane and at a maximum 150 days before harvest. The activity of florpyrauxifen-benzyl as a flowering inhibitor was measured via assessments (Scale of flowering inhibition—see chart 1) performed at 0, 14, 30, 45, 60, 75, 90, 120, 150 days after application, or up to harvest time. The assessments were measured in sugarcane stems, rating the flowering induction according to the UFSCar scale shown below. Significance of treatment effect was evaluated with F-approximate test (α=0.1) and least square means from different treatments were compared with Tukey's test.

SMILES: COc1c(Cl)ccc(-c2nc(C(=O)OCc3ccccc3)c(Cl)c(N)c2F)c1F [Rinskor, florpyrauxifen-benzyl]
- % Referring to Scale (Table 1, 90 DAA, 10 g ai/ha): 14.3%
- Frequency 1/1 (0%) (Table 1, 90 DAA, 10 g ai/ha): 7.5%
- Frequency 2/1 (15%) (Table 1, 90 DAA, 10 g ai/ha): 90.0%
- Frequency 3/1 (30%) (Table 1, 90 DAA, 10 g ai/ha): 2.5%
- Frequency 4/1 (50%) (Table 1, 90 DAA, 10 g ai/ha): 0.0%
- Frequency 4/2 (80%) (Table 1, 90 DAA, 10 g ai/ha): 0.0%
- Frequency 4/3 (90%) (Table 1, 90 DAA, 10 g ai/ha): 0.0%
- Frequency 4/4 (100%) (Table 1, 90 DAA, 10 g ai/ha): 0.0%
- % Referring to Scale (Table 1, 90 DAA, 15 g ai/ha): 13.9%
- Frequency 1/1 (0%) (Table 1, 90 DAA, 15 g ai/ha): 7.5%
- Frequency 2/1 (15%) (Table 1, 90 DAA, 15 g ai/ha): 92.5%
- Frequency 3/1 (30%) (Table 1, 90 DAA, 15 g ai/ha): 0.0%
- Frequency 4/1 (50%) (Table 1, 90 DAA, 15 g ai/ha): 0.0%
- Frequency 4/2 (80%) (Table 1, 90 DAA, 15 g ai/ha): 0.0%
- Frequency 4/3 (90%) (Table 1, 90 DAA, 15 g ai/ha): 0.0%
- Frequency 4/4 (100%) (Table 1, 90 DAA, 15 g ai/ha): 0.0%
- % Referring to Scale (Table 1, 90 DAA, 20 g ai/ha): 13.5%
- Frequency 1/1 (0%) (Table 1, 90 DAA, 20 g ai/ha): 15.0%
- Frequency 2/1 (15%) (Table 1, 90 DAA, 20 g ai/ha): 80.0%
- Frequency 3/1 (30%) (Table 1, 90 DAA, 20 g ai/ha): 5.0%
- Frequency 4/1 (50%) (Table 1, 90 DAA, 20 g ai/ha): 0.0%
- Frequency 4/2 (80%) (Table 1, 90 DAA, 20 g ai/ha): 0.0%
- Frequency 4/3 (90%) (Table 1, 90 DAA, 20 g ai/ha): 0.0%
- Frequency 4/4 (100%) (Table 1, 90 DAA, 20 g ai/ha): 0.0%
- % Referring to Scale (Table 1, 120 DAA, 2 g ai/ha): 13.9%
- Frequency 1/1 (0%) (Table 1, 120 DAA, 2 g ai/ha): 7.5%
- Frequency 2/1 (15%) (Table 1, 120 DAA, 2 g ai/ha): 92.5%
- Frequency 3/1 (30%) (Table 1, 120 DAA, 2 g ai/ha): 0.0%
- Frequency 4/1 (50%) (Table 1, 120 DAA, 2 g ai/ha): 0.0%
- Frequency 4/2 (80%) (Table 1, 120 DAA, 2 g ai/ha): 0.0%
- Frequency 4/3 (90%) (Table 1, 120 DAA, 2 g ai/ha): 0.0%
- Frequency 4/4 (100%) (Table 1, 120 DAA, 2 g ai/ha): 0.0%
- % Referring to Scale (Table 1, 120 DAA, 5 g ai/ha): 12.8%
- Frequency 1/1 (0%) (Table 1, 120 DAA, 5 g ai/ha): 15.0%
- Frequency 2/1 (15%) (Table 1, 120 DAA, 5 g ai/ha): 85.0%
- Frequency 3/1 (30%) (Table 1, 120 DAA, 5 g ai/ha): 0.0%
- Frequency 4/1 (50%) (Table 1, 120 DAA, 5 g ai/ha): 0.0%
- Frequency 4/2 (80%) (Table 1, 120 DAA, 5 g ai/ha): 0.0%
- Frequency 4/3 (90%) (Table 1, 120 DAA, 5 g ai/ha): 0.0%
- Frequency 4/4 (100%) (Table 1, 120 DAA, 5 g ai/ha): 0.0%
- % Referring to Scale (Table 1, 120 DAA, 10 g ai/ha): 13.9%
- Frequency 1/1 (0%) (Table 1, 120 DAA, 10 g ai/ha): 7.5%
- Frequency 2/1 (15%) (Table 1, 120 DAA, 10 g ai/ha): 92.5%
- Frequency 3/1 (30%) (Table 1, 120 DAA, 10 g ai/ha): 0.0%
- Frequency 4/1 (50%) (Table 1, 120 DAA, 10 g ai/ha): 0.0%
- Frequency 4/2 (80%) (Table 1, 120 DAA, 10 g ai/ha): 0.0%
- Frequency 4/3 (90%) (Table 1, 120 DAA, 10 g ai/ha): 0.0%
- Frequency 4/4 (100%) (Table 1, 120 DAA, 10 g ai/ha): 0.0%
- % Referring to Scale (Table 1, 120 DAA, 15 g ai/ha): 13.9%
- Frequency 1/1 (0%) (Table 1, 120 DAA, 15 g ai/ha): 7.5%
- Frequency 2/1 (15%) (Table 1, 120 DAA, 15 g ai/ha): 92.5%
- Frequency 3/1 (30%) (Table 1, 120 DAA, 15 g ai/ha): 0.0%
- Frequency 4/1 (50%) (Table 1, 120 DAA, 15 g ai/ha): 0.0%
- Frequency 4/2 (80%) (Table 1, 120 DAA, 15 g ai/ha): 0.0%
- Frequency 4/3 (90%) (Table 1, 120 DAA, 15 g ai/ha): 0.0%
- Frequency 4/4 (100%) (Table 1, 120 DAA, 15 g ai/ha): 0.0%

From patent publication US20240138411A1, “METHOD OF […] OF SUGARCANE” (CORTEVA AGRISCIENCE LLC, priority 2021, published 2024)
